Source: ChEMBL document CHEMBL1201862, “PubChem BioAssay data set” (2004)
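Protocol summary: plate cells (96-well), add compound at 5 concentrations, incubate 48 h, interpolate endpoints linearly. GI50 marks 50% less growth.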 Calls of active or inactive are those of the source. Cut-off read from the data, not from the text of the source: active = GI50 up to about 1.1 µM and inactive = higher.

Experiments:
Assay in all cases: DTP human tumour cell line panel, 48 h
SF-539 = tested on: SF-539
NCI-H23 = tested on: NCI-H23
NCI/ADR-RES = tested on: NCI/ADR-RES
U-251 = tested on: U-251
SK-OV-3 = tested on: SK-OV-3
IGROV-1 = tested on: IGROV-1
KM-20L2 = tested on: KM-20L2
HOP-18 = tested on: HOP-18
OVCAR-8 = tested on: OVCAR-8
SK-MEL-2 = tested on: SK-MEL-2
SF-295 = tested on: SF-295
A549 = tested on: A549
SK-MEL-5 = tested on: SK-MEL-5
SNB-19 = tested on: SNB-19
COLO 205 = tested on: COLO 205
UACC-62 = tested on: UACC-62
OVCAR-3 = tested on: OVCAR-3
CCRF-CEM = tested on: CCRF-CEM
NCI-H522 = tested on: NCI-H522
MOLT-4 = tested on: MOLT-4

Measured: GI50

O=c1ccn([C@@H]2C=C(CO)[C@@H](O)[C@H]2O)c(=O)[nH]1
inactive: SF-539 > 625 µM | NCI-H23 > 625 µM | NCI/ADR-RES > 625 µM | U-251 > 625 µM | SK-OV-3 > 625 µM | IGROV-1 > 625 µM | KM-20L2 > 625 µM | HOP-18 > 625 µM | OVCAR-8 > 625 µM | SK-MEL-2 > 625 µM | SF-295 > 625 µM | A549 > 625 µM | SK-MEL-5 > 625 µM | SNB-19 > 625 µM | COLO 205 > 625 µM | UACC-62 > 625 µM | OVCAR-3 > 625 µM | CCRF-CEM > 625 µM | NCI-H522 > 625 µM

COc1ccc(C2COc3cc(OC(C)=O)c(OC(C)=O)cc3C2)cc1 (configuration not stated)
inactive: SF-539 19.9 µM | NCI-H23 27.5 µM | NCI/ADR-RES 36.3 µM | U-251 6.49 µM | SK-OV-3 40.1 µM | IGROV-1 26.2 µM | KM-20L2 31.4 µM | HOP-18 2.78 µM | OVCAR-8 18.8 µM | SK-MEL-2 31.7 µM | SF-295 14.1 µM | A549 11.9 µM | SK-MEL-5 25.9 µM | SNB-19 7.74 µM | COLO 205 20 µM | MOLT-4 5.66 µM | UACC-62 19 µM | OVCAR-3 19.6 µM | CCRF-CEM 3.09 µM | NCI-H522 1.97 µM

CCCN1C(=O)/C(=C(/O)C(=O)OCC)C(c2ccc(OC)c(OC)c2)C1=O (configuration not stated)
inactive: SF-539 > 100 µM | NCI-H23 > 100 µM | NCI/ADR-RES > 100 µM | U-251 > 100 µM | SK-OV-3 > 100 µM | IGROV-1 > 100 µM | KM-20L2 > 100 µM | HOP-18 > 100 µM | OVCAR-8 > 100 µM | SK-MEL-2 > 100 µM | SF-295 > 100 µM | A549 > 100 µM | SK-MEL-5 > 100 µM | SNB-19 > 100 µM | COLO 205 > 100 µM | MOLT-4 > 100 µM | UACC-62 > 100 µM | OVCAR-3 > 47.8 µM | CCRF-CEM > 100 µM | NCI-H522 > 100 µM

CCCCN(C)/N=N/c1[nH]cnc1C(N)=O
inactive: SF-539 > 100 µM | NCI-H23 > 100 µM | NCI/ADR-RES > 100 µM | U-251 > 100 µM | SK-OV-3 35.8 µM | IGROV-1 > 77.8 µM | KM-20L2 > 50.2 µM | HOP-18 > 100 µM | OVCAR-8 78.2 µM | SK-MEL-2 44.6 µM | SF-295 > 94.2 µM | A549 > 100 µM | SK-MEL-5 > 100 µM | SNB-19 > 100 µM | COLO 205 > 100 µM | MOLT-4 41.2 µM | UACC-62 57.1 µM | OVCAR-3 99.5 µM | CCRF-CEM 52.4 µM | NCI-H522 > 100 µM

COc1ccc(/C=c2\sc3n(c2=O)CCN=3)cc1
inactive: SF-539 > 100 µM | NCI-H23 > 100 µM | U-251 > 100 µM | SK-OV-3 > 100 µM | KM-20L2 > 100 µM | HOP-18 88.3 µM | OVCAR-8 > 100 µM | SK-MEL-2 > 100 µM | SF-295 > 100 µM | A549 > 100 µM | SK-MEL-5 80 µM | MOLT-4 68.5 µM | UACC-62 > 100 µM | OVCAR-3 > 100 µM | CCRF-CEM 96.2 µM | NCI-H522 84.5 µM

NCCCN(CCCN)CCN(CCN(CCCN)CCCN)CCN(CCCN)CCCN
inactive: NCI-H23 > 100 µM | NCI/ADR-RES > 100 µM | U-251 66.1 µM | SK-OV-3 48.4 µM | IGROV-1 > 100 µM | OVCAR-8 44.6 µM | SK-MEL-2 > 100 µM | SF-295 55.6 µM | A549 > 100 µM | SK-MEL-5 > 100 µM | SNB-19 > 100 µM | COLO 205 > 100 µM | MOLT-4 > 10 µM | OVCAR-3 > 100 µM | CCRF-CEM > 10 µM | NCI-H522 17 µM

c1ccc(-n2cnnc2-c2nsc3ccccc23)cc1
inactive: SF-539 > 100 µM | NCI-H23 > 100 µM | U-251 > 100 µM | IGROV-1 > 100 µM | KM-20L2 > 100 µM | HOP-18 9.71 µM | OVCAR-8 > 100 µM | SK-MEL-2 > 100 µM | A549 > 100 µM | SK-MEL-5 > 100 µM | SNB-19 > 100 µM | COLO 205 > 100 µM | MOLT-4 > 100 µM | UACC-62 > 100 µM | OVCAR-3 80.2 µM | CCRF-CEM > 100 µM
